Results taken from US6960574B2, “Antagonists of RF-amide neuropeptides” (University of Florida, priority 2002, dated 2005).
Peptide text beside a SMILES is read from it. * marks the point of attachment. Dansyl = CN(C)c1cccc2c(S(=O)(=O)*)cccc12

Tested on: receptor labeled by the radioiodinated analogue of 1 (4, [125I]-YLFQPQRF-NH2); neuropeptide FF receptor
Experiment: Competitive radioligand binding against 4 ([125I]Y8F-amide)
Details: mixture-based positional scanning; difference from averaged radioligand displacement of whole library (0); about 80 a.u. = 10-fold change in Ki
Text: Additionally, three-dimensional (3-D) molecular models of the known smaller-size neuropeptide FF antagonists 3 and 3a were constructed and their low-energy conformations were obtained in the AMBER force-field [Weiner, et al., J. Comput. Chem. 1986, 7, […].] by molecular dynamics calculations involving simulated annealing. A semi-empirical quantum chemical method with the PM3 parameterization [Stewart, J. Comput. Chem. 1989, 10, 209-220.] was used for the final geometry optimization. […] At least one of the rings in domain B is aromatic. No similarity between 3 and 3a outside these domains were apparent; therefore, the simultaneous presence of A and B domains in the structure of neuropeptide FF (1) antagonists is critical to the invention. Apparently, structural subunits (domain C) outside domains A and B should function in a cooperative manner in directing the pharmacophores into proper geometric positions when improved binding to the cognate receptor is to be obtained, which is associated with the improvement of the desired pharmacological effect. An approach involving mixture-based synthetic combinatorial libraries and positional scanning [(a) Houghten, et al., J. Med Chem. 1999, 42, 3743-3778.] was adopted in the search for preferred structural motifs in domain C that assist in achieving this objective in this invention. To allow for the use of 3 as a reference in this process, the guadinino group (A) was incorporated as part of an L-2-amino-5-{[amino(imino)methyl]amino}pentanoyl (arginyl, R, Arg) residue and 5-dimethylamino-1-naphthalenesulphonyl (dansyl) was chosen to form B (However, it must be emphasized that both R and dansyl are replaceable with moieties that bestow A and B domain attributes described in the invention).
Upon screening for residues to replace the glutamine of 3, serine (S) was the only building block in this position that increased the displacement of 4 in the radioligand-binding assay. Therefore, motifs present in dansyl-Gly-Ser-Arg-NH2, dansyl-Gly-Gln-Arg-NH2, dansyl-Gln-Ser-Arg-NH2, and dansyl-Gln-Gln-Arg-NH2 were chosen based on their affinity to the cognate receptor for further consideration as primary templates when designing the domain C of the compounds described in the invention herein. […]

SMILES | Relative Binding Index (RBI) [a.u.]
CN(C)c1cccc2c(S(=O)(=O)N[C@@H](Cc3c[nH]c4ccccc34)C(=O)N[C@@H](Cc3c[nH]cn3)C(=O)N[C@@H](CCCNC(=N)N)C(N)=O)cccc12 [Dansyl-WHR-amide] (Dansyl-Trp-His-Arg-NH2) | 3
CN(C)c1cccc2c(S(=O)(=O)N[C@@H](CC(N)=O)C(=O)N[C@@H](CCC(N)=O)C(=O)N[C@@H](CCCNC(=N)N)C(N)=O)cccc12 [Dansyl-NQR-amide] (Dansyl-Asn-Gln-Arg-NH2) | 26
CSCC[C@H](NC(=O)[C@H](Cc1cnc[nH]1)NS(=O)(=O)c1cccc2c(N(C)C)cccc12)C(=O)N[C@@H](CCCNC(=N)N)C(N)=O [Dansyl-HMR-amide] (Dansyl-His-Met-Arg-NH2) | 17
CC[C@H](C)[C@H](NS(=O)(=O)c1cccc2c(N(C)C)cccc12)C(=O)N1CCC[C@H]1C(=O)N[C@@H](CCCNC(=N)N)C(N)=O [Dansyl-IPR-amide] (Dansyl-Ile-Pro-Arg-NH2) | −8
CN(C)c1cccc2c(S(=O)(=O)N[C@@H](CC(N)=O)C(=O)N[C@@H](CCCNC(=N)N)C(=O)N[C@@H](CCCNC(=N)N)C(N)=O)cccc12 [Dansyl-NRR-amide] (Dansyl-Asn-Arg-Arg-NH2) | 11
CN(C)c1cccc2c(S(=O)(=O)N3CCC[C@H]3C(=O)NCC(=O)N[C@@H](CCCNC(=N)N)C(N)=O)cccc12 [Dansyl-PGR-amide] (Dansyl-Pro-Gly-Arg-NH2) | −43
CN(C)c1cccc2c(S(=O)(=O)N[C@@H](CCCCN)C(=O)N[C@@H](Cc3ccccc3)C(=O)N[C@@H](CCCNC(=N)N)C(N)=O)cccc12 [Dansyl-KFR-amide] (Dansyl-Lys-Phe-Arg-NH2) | 23
C[C@H](NC(=O)[C@H](CO)NS(=O)(=O)c1cccc2c(N(C)C)cccc12)C(=O)N[C@@H](CCCNC(=N)N)C(N)=O [Dansyl-SAR-amide] (Dansyl-Ser-Ala-Arg-NH2) | −33
CC[C@H](C)[C@H](NS(=O)(=O)c1cccc2c(N(C)C)cccc12)C(=O)N[C@@H](Cc1ccccc1)C(=O)N[C@@H](CCCNC(=N)N)C(N)=O [Dansyl-IFR-amide] (Dansyl-Ile-Phe-Arg-NH2) | −12
CN(C)c1cccc2c(S(=O)(=O)N[C@@H](CC(N)=O)C(=O)N[C@@H](CO)C(=O)N[C@@H](CCCNC(=N)N)C(N)=O)cccc12 [Dansyl-NSR-amide] (Dansyl-Asn-Ser-Arg-NH2) | 33
CN(C)c1cccc2c(S(=O)(=O)N3CCC[C@H]3C(=O)N[C@@H](CC(=O)O)C(=O)N[C@@H](CCCNC(=N)N)C(N)=O)cccc12 [Dansyl-PDR-amide] (Dansyl-Pro-Asp-Arg-NH2) | −66
CC[C@H](C)[C@H](NS(=O)(=O)c1cccc2c(N(C)C)cccc12)C(=O)N[C@@H](CC(=O)O)C(=O)N[C@@H](CCCNC(=N)N)C(N)=O [Dansyl-IDR-amide] (Dansyl-Ile-Asp-Arg-NH2) | −29
CN(C)c1cccc2c(S(=O)(=O)N[C@@H](CCCCN)C(=O)N[C@@H](Cc3ccc(O)cc3)C(=O)N[C@@H](CCCNC(=N)N)C(N)=O)cccc12 [Dansyl-KYR-amide] (Dansyl-Lys-Tyr-Arg-NH2) | 23
CC(C)C[C@H](NS(=O)(=O)c1cccc2c(N(C)C)cccc12)C(=O)N[C@@H](Cc1cnc[nH]1)C(=O)N[C@@H](CCCNC(=N)N)C(N)=O [Dansyl-LHR-amide] (Dansyl-Leu-His-Arg-NH2) | −38
CN(C)c1cccc2c(S(=O)(=O)N[C@@H](CCCNC(=N)N)C(=O)N3CCC[C@H]3C(=O)N[C@@H](CCCNC(=N)N)C(N)=O)cccc12 [Dansyl-RPR-amide] (Dansyl-Arg-Pro-Arg-NH2) | 10
CN(C)c1cccc2c(S(=O)(=O)N[C@@H](CCCCN)C(=O)N[C@@H](Cc3c[nH]c4ccccc34)C(=O)N[C@@H](CCCNC(=N)N)C(N)=O)cccc12 [Dansyl-KWR-amide] (Dansyl-Lys-Trp-Arg-NH2) | 34
C[C@@H](O)[C@H](NC(=O)[C@H](CC(=O)O)NS(=O)(=O)c1cccc2c(N(C)C)cccc12)C(=O)N[C@@H](CCCNC(=N)N)C(N)=O [Dansyl-DTR-amide] (Dansyl-Asp-Thr-Arg-NH2) | 0
CN(C)c1cccc2c(S(=O)(=O)N[C@@H](CCC(N)=O)C(=O)N[C@@H](Cc3ccccc3)C(=O)N[C@@H](CCCNC(=N)N)C(N)=O)cccc12 [Dansyl-QFR-amide] | 20

SMILES | Relative Binding Index (RBI) [a.u.]
C[C@@H](O)[C@H](NS(=O)(=O)c1cccc2c(N(C)C)cccc12)C(=O)N[C@@H](CC(N)=O)C(=O)N[C@@H](CCCNC(=N)N)C(N)=O [Dansyl-TNR-amide] (Dansyl-Thr-Asn-Arg-NH2) | −7
CN(C)c1cccc2c(S(=O)(=O)N[C@@H](CCCCN)C(=O)N[C@@H](Cc3c[nH]cn3)C(=O)N[C@@H](CCCNC(=N)N)C(N)=O)cccc12 [Dansyl-KHR-amide] (Dansyl-Lys-His-Arg-NH2) | 19
CC(C)C[C@H](NS(=O)(=O)c1cccc2c(N(C)C)cccc12)C(=O)N[C@H](C(=O)N[C@@H](CCCNC(=N)N)C(N)=O)[C@@H](C)O [Dansyl-LTR-amide] (Dansyl-Leu-Thr-Arg-NH2) | −26
CSCC[C@H](NS(=O)(=O)c1cccc2c(N(C)C)cccc12)C(=O)N[C@@H](Cc1ccc(O)cc1)C(=O)N[C@@H](CCCNC(=N)N)C(N)=O [Dansyl-MYR-amide] (Dansyl-Met-Tyr-Arg-NH2) | −45
CN(C)c1cccc2c(S(=O)(=O)N[C@@H](Cc3c[nH]c4ccccc34)C(=O)N[C@@H](CO)C(=O)N[C@@H](CCCNC(=N)N)C(N)=O)cccc12 [Dansyl-WSR-amide] (Dansyl-Trp-Ser-Arg-NH2) | 29
CN(C)c1cccc2c(S(=O)(=O)N[C@@H](Cc3c[nH]c4ccccc34)C(=O)N[C@@H](CC(N)=O)C(=O)N[C@@H](CCCNC(=N)N)C(N)=O)cccc12 [Dansyl-WNR-amide] (Dansyl-Trp-Asn-Arg-NH2) | 10
CN(C)c1cccc2c(S(=O)(=O)N[C@@H](Cc3cnc[nH]3)C(=O)N[C@@H](CCC(N)=O)C(=O)N[C@@H](CCCNC(=N)N)C(N)=O)cccc12 [Dansyl-HQR-amide] (Dansyl-His-Gln-Arg-NH2) | 30
CN(C)c1cccc2c(S(=O)(=O)N[C@@H](CCC(N)=O)C(=O)N3CCC[C@H]3C(=O)N[C@@H](CCCNC(=N)N)C(N)=O)cccc12 [Dansyl-QPR-amide] (Dansyl-Gln-Pro-Arg-NH2) | 25
CN(C)c1cccc2c(S(=O)(=O)N[C@@H](Cc3ccccc3)C(=O)N[C@@H](CCCNC(=N)N)C(=O)N[C@@H](CCCNC(=N)N)C(N)=O)cccc12 [Dansyl-FRR-amide] (Dansyl-Phe-Arg-Arg-NH2) | 8
C[C@@H](O)[C@H](NS(=O)(=O)c1cccc2c(N(C)C)cccc12)C(=O)N[C@@H](CCCCN)C(=O)N[C@@H](CCCNC(=N)N)C(N)=O [Dansyl-TKR-amide] (Dansyl-Thr-Lys-Arg-NH2) | −11
CSCC[C@H](NC(=O)[C@H](CCCNC(=N)N)NS(=O)(=O)c1cccc2c(N(C)C)cccc12)C(=O)N[C@@H](CCCNC(=N)N)C(N)=O [Dansyl-RMR-amide] (Dansyl-Arg-Met-Arg-NH2) | 7
CN(C)c1cccc2c(S(=O)(=O)N[C@@H](Cc3ccccc3)C(=O)N[C@@H](CC(N)=O)C(=O)N[C@@H](CCCNC(=N)N)C(N)=O)cccc12 [Dansyl-FNR-amide] (Dansyl-Phe-Asn-Arg-NH2) | 11
CSCC[C@H](NC(=O)[C@@H](NS(=O)(=O)c1cccc2c(N(C)C)cccc12)[C@@H](C)O)C(=O)N[C@@H](CCCNC(=N)N)C(N)=O [Dansyl-TMR-amide] (Dansyl-Thr-Met-Arg-NH2) | −9
C[C@H](NC(=O)[C@H](C)NS(=O)(=O)c1cccc2c(N(C)C)cccc12)C(=O)N[C@@H](CCCNC(=N)N)C(N)=O [Dansyl-AAR-amide] (Dansyl-Ala-Ala-Arg-NH2) | −37
CSCC[C@H](NS(=O)(=O)c1cccc2c(N(C)C)cccc12)C(=O)N1CCC[C@H]1C(=O)N[C@@H](CCCNC(=N)N)C(N)=O [Dansyl-MPR-amide] (Dansyl-Met-Pro-Arg-NH2) | −41
CN(C)c1cccc2c(S(=O)(=O)N[C@@H](CCC(N)=O)C(=O)N[C@@H](CCC(=O)O)C(=O)N[C@@H](CCCNC(=N)N)C(N)=O)cccc12 [Dansyl-QER-amide] (Dansyl-Gln-Glu-Arg-NH2) | 22
CC[C@H](C)[C@H](NC(=O)[C@H](CC(N)=O)NS(=O)(=O)c1cccc2c(N(C)C)cccc12)C(=O)N[C@@H](CCCNC(=N)N)C(N)=O [Dansyl-NIR-amide] (Dansyl-Asn-Ile-Arg-NH2) | 19
